In patent US8741843B2, “Compositions and methods for inducing angiogenesis” (priority 2006, dated 2014):
“Also recorded” adds a separate entry of the source. Ends that are not written are not given here.

How the values were obtained:
[1] = test system: endothelial cells (HUVEC); assay: Migration of endothelial cells under hypoxia (Chemicon QCM 96-well Migration Assay); type: cell-based, human; conditions: 5 hours hypoxia, 10 ng/ml
Protocol: FIG. 6 is a graph depicting migration of endothelial cells under hypoxia conditions. Endothelial cells (25,000) were incubated in endothelial cells growth medium free supplements in the migration chamber. ADOPep1 (SEQ ID NO:2), 2 (SEQ ID NO:3) and 3 (SEQ ID NO:4) were added to the feeder tray of the migratory kit at 1, 10 and 100 ng/ml for 5 hours hypoxia. Results were determined by a fluorescence ELISA reader and expressed as increase in percentage migration in Relative fluorescence Units.
FIGS. 26a-b are graphs depicting induction of endothelial cell migration under hypoxia by the ADOPEP motifs. Endothelial cells were incubated for 5 hours under hypoxia conditions in the presence of increasing concentrations of ADOPep1 (red line), peptide motif A (dark blue line), peptide motif B (green line) or peptide motif C (light blue line) and the migration of endothelial cells was detected. FIG. 26a—experiment 1; FIG. 26b—experiment 2.
Endothelial cell migration was evaluated by the Chemicon QCM 96-well Migration Assay (Chemicon International, Calif., USA) according to manufacturer's instructions. This kit utilizes a membrane with an 8 μm pore size. Migratory cells on the bottom of the insert membrane are dissociated from the membrane when incubated with cell detachment buffer provided by the kit. […] For the migration assay, HUVEC from passage 3 were incubated in endothelial cell (EC) growth medium free of supplements. After trypsinization, 25,000 EC were incubated in the migration chamber. ADOPeps were added at concentrations of 1, 10 and 100 ng/ml in the feeder tray for chemoattractant migration assay. Time of incubation was 5 hours for endothelial cells under hypoxic conditions. Results were determined in a Fluorescent ELISA reader at 480/520 nm.

endothelial cells [2] = assay: Hypoxia-induced apoptosis of endothelial cells (Annexin V FITC/PI FACS); type: cell-based, human; conditions: 24 hours hypoxia; for effect on hypoxia-induced apoptosis of endothelial cells: peptides 10 ng/ml
Protocol: FIG. 17 is a histogram depicting the effect of ADOPep1 on hypoxia-induced apoptosis of endothelial cells. Endothelial cells were exposed for 24 hours hypoxia in the presence of endothelial cell growth medium supplemented with 5% fetal calf serum (FCS), followed by incubation under hypoxia conditions with ADOPep1 (10 ng/ml) or anti-GRP78 antibody (100 ng/ml). Cells (100,000/tube) were incubated with Annexin-V FITC/PI for endothelial cell apoptosis determination. […] Similarly, anti-GRP78 antibody induced a reduction in apoptosis up to 32%.
FIGS. 24a-d are FACS analyses depicting hypoxia induced apoptosis. Endothelial cells were incubated for 24 hours under hypoxia conditions in the absence (FIG. 24a) or presence of 10 ng/ml of ADOPepe1 (FIG. 24b), peptide of Motif A (FIG. 24c) or peptide of motif C (FIG. 24d) and the level of apoptosis was determined using FACS analysis and the PI (shown on the Y axis)/Annexin V (shown on the X axis) markers.
FIG. 25 is a bar graph depicting the inhibition of hypoxia induced apoptosis by ADOPep 1, Motif A and Motif B. Endothelial cells were incubated for 24 hours under hypoxia conditions in the absence or presence of 10 ng/ml of ADOPepe1, Motif A, Motif B or motif C and the level of apoptosis was determined using FACS analysis and quantified as the percent of Annexin V and PI positive cells. The results represent average±standard deviation of 4 independent experiments.
FIGS. 33a-f are representative FACS analyses depicting a specific inhibition of hypoxia-induced apoptosis of endothelial cells by ADOPep1. Endothelial cells in Petri dishes were incubated for 24 hours with 5% FCS in supplement-free endothelial cell growth medium under normoxia (FIGS. 33a and d), exposed to 24 hours hypoxia (Figures c and f) or incubated under normoxia with 100 micromolar per 100,000 cells CoCl2 (FIGS. 33b and e), in the absence (FIGS. 33a-c) or presence (FIGS. 33d-f) of 10 ng/ml Adopep1 peptide (for 24 hours). Cells were trypsinized and immediately re-suspended in PBS with 5% FCS and 0.1% Na-azide. Samples containing 100,000 cells were tested for apoptosis using the Annexin-FITC (X axis) and propidium iodide (Y axis) kit (Bender Medsystems, Vienna, Austria), according to manufacturer's instructions. Results were analyzed by FACScan (Beckton Dickinson).
EC were incubated for 24 hours with 5% FCS in EC growth media in Petri dishes plates followed by 24 hours incubation under hypoxia conditions with ADOPep1 (10 ng/ml), anti GRP78 antibody (Santa Cruz Biotechnology, Calif., USA) (1 microgram/ml) or recombinant VEGF (10 ng/ml). The Annexin V FITC/PI detects the phosphatidylserin on the apoptotic cells using flow cytometry. Human Annexin V-FITC kit (Bender Medsystems, Vienna, Austria) was used for the measurement of EC apoptosis percentage following manufacturer's instructions. Samples were analyzed using a fluorescence activated cell sorter (FACScan Beckton Dickinson, Calif., USA).

endothelial cells [3] = assay: Inhibition of binding of biotinylated ADOPep1 to endothelial cells by motif peptides; design: species or system human; conditions: normoxia, peptides 0.01, 0.1 or 1 ng/ml, ADOPep1^Biot 2 μg/ml
Protocol: FIG. 23 is a graph depicting the inhibition of binding of ADOPep1^Biot (2 μg/ml) to endothelial cells by specific peptides corresponding to conserved motifs from the ADOPeps. Endothelial cells were incubated for 2 hours under normoxia conditions in the presence of increasing concentrations (0.01, 0.1 or 1 ng/ml) of peptides having the amino acid sequences corresponding to Motif A (HWRRP; SEQ ID NO:7), Motif B (HWRRA; SEQ ID NO:8), Motif C (AHLLP; SEQ ID NO:6) or non-biotinylated ADOPep1 (SEQ ID NO:2) and then were incubated for 1 hour with biotinylated ADOPep1 (2 μg/ml) and the binding of biotinylated ADOPep1 to endothelial cells was determined using HRP-streptavidin.

[4] = target: T1, GRP78 on endothelial cells (Homo sapiens, UniProt P11021); assay: FACS competition of peptides with GRP78 polyclonal antibody on endothelial cells under hypoxia; type: binding; conditions: hypoxic conditions; listed as motif C
T1 construct: endogenous in cells; host or cells: HUVEC / endothelial cells from umbilical cords, under normoxia or hypoxia
T1 sequence (P11021 19-654): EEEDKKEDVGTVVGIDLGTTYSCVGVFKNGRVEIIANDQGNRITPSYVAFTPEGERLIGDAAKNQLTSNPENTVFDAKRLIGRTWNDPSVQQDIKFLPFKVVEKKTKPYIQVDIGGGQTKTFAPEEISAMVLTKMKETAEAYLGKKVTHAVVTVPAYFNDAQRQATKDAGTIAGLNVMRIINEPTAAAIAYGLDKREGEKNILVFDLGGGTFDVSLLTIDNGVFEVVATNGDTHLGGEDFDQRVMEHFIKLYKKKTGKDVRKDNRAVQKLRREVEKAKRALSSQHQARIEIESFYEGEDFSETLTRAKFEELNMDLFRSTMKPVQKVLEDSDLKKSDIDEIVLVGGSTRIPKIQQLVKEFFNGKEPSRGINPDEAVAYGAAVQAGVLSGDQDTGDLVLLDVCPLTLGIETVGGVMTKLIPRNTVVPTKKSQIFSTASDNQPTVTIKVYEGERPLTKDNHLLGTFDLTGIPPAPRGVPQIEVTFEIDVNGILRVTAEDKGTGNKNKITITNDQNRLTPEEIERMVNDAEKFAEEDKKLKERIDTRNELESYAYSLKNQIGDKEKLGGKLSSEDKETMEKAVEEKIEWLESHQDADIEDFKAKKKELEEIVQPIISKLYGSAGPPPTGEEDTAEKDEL
Protocol: Endothelial cells were cultured for 24 hours under hypoxic conditions in endothelial cell growth medium. Cells were removed by trypsin and incubated for 1 hour on ice with increasing concentrations of AdoPep1, Motif A and Motif C peptides. GRP78 polyclonal antibody (2 μg/100,000) was added to the cells for 2 hours on ice. Anti-goat FITC (Jackson ImmunoResearch) was added for 30 minutes on ice. IgG1-FITC was used as the isotype control. The samples were analyzed with a FACScan (Beckton Dickinson). […] FIG. 28d depicts the average percent binding of GRP78 to endothelial cells as a function of peptide amount as determined by 2 independent experiments.

[5] = test system: endothelial cells (HUVEC); assay: Binding of biotinylated ADOPep to endothelial cells by FACS; design: species or system human; conditions: 5 micrograms per 100,000 cells
Protocol: FIG. 3 is a FACS analysis depicting the binding (in percentages) of biotinylated ADOPep1 (ADOPep1^Biot), an ADAM15 derived peptide (SEQ ID NO:2), to endothelial cells (EC) under normoxia. Biotinylated ADOPep1 at 0.05, 0.5 and 5 microgram/ml (μg/ml) were added to endothelial cells.
FIG. 4 is a FACS analysis depicting the binding (in total counts) of Biotinylated ADOPep1 to endothelial cells under normoxia and hypoxia conditions. […] X axis—Intensity of binding.
Human umbilical endothelial cells (HUVEC) were harvested by trypsin and 100,000 cells per sample were suspended in PBS+5% FCS+0.1% Na azide. Endothelial cells were either exposed for 5 hours to hypoxia or remained under normoxia conditions. Cells were stained for 2 hours on ice in dark with 0.05, 0.5, 5 μg/100,000 cells biotinylated ADOPeps. The cells were then washed twice with PBS, following which the cells were stained for 30 minutes with FITC-labeled Streptavidin (Jackson ImmunoResearch Laboratories, PA, USA). After washing, samples were analyzed using a fluorescence activated cell sorter (FACScan Beckton Dickinson, Calif., USA).

GRP78 = GRP78 (Homo sapiens, UniProt P11021); assay: Immune precipitation of endothelial cell lysate with biotinylated ADOPep1, PAGE, Western blot, mass spectrometry; type: binding; design: immune precipitation of endothelial cells lysate with biotinylated ADOPep1 under normoxia and hypoxia conditions; endogenous in cells; host or cells: HUVEC (lysate); conditions: normoxia and hypoxia
GRP78, sequence (P11021 19-654): as above
Protocol: HUVEC were seeded in 90 mm Petri dishes plates for 24 hours with complete Endothelial Cell Growth Medium (PromoCell. Heildelberg, Germany). Cells were washed twice with PBS and buffer lysate (50 mM Tris Cl (pH 8, 150 mM Na Cl, 0.02% Na azide, 0.1% SDS, 100 μg/ml PMSF, 1 μg/ml protease inhibitors, 1% NP-40) was added for 20 minutes on ice. After incubation, cells were scraped with a rubber policeman and transferred to a chilled microfuge tube. After centrifugation of lysate at 12,000 g for 2 minutes at 4° C., supernatant was transferred to a fresh microfuge tube and stored at −70° C.
Aliquots samples of lysates (500 μl) were incubated with 10 μg of biotinylated ADOPep1 for one hour at 4° C. by gently mixing. Streptavidin Sepharose beads (Amersham Biosciences, Uppsla, Sweeden) (50 μl) were added to the sample for a second incubation one hour at 4° C. by gently mixing. After then, sample was centrifuge for 20 seconds at 12,000 g and the pellet was saved and further washed 3 times. Finally the pellet was suspended in 100 μl of sample buffer for Western blot analysis. For ELISA, protein was eluted by 5 minutes incubation of the sample at room temperature in 1 ml of Tris-Glycin 0.2M (pH 2.2), followed by titration with 1M Tris (pH 9.1). […]

inhibition of anti GRP78 binding to endothelial cells (in words) [4]	protein (receptor) bound by the peptide in endothelial cell lysate (GRP78)	Substance	migration of endothelial cells [1]	effect on hypoxia-induced apoptosis of endothelial cells (endothelial cells [2])	effect on hypoxia-induced apoptosis of endothelial cells (endothelial cells [2]; listed as motif C)	percent apoptosis (PI/Annexin V) (endothelial cells [2]; FIGS. 24a-d, 10 ng/ml, hypoxia alone 79.3%) [%]	inhibition of the binding of ADOPep1^Biot to endothelial cells (endothelial cells [3])	binding to endothelial cells under hypoxia versus normoxia [5]
did not inhibit anti GRP78 binding		AHLLP [Motif C, 5 amino acid motif peptide without HWRR]	no significant effect on endothelial cell migration	no effect on apoptosis	no effect on hypoxia induced apoptosis	81.1	moderate inhibition of binding	
		HWRRA [Motif B, 5 amino acid motif peptide]	induced endothelial cell migration	capable of inhibiting the hypoxia induced apoptosis; also recorded: significant inhibition of hypoxia induced apoptosis			significant inhibition	
	GRP78 protein	biotinylated ADOPep1: biotinylated ADOPep1 (SEQ ID NO:2) (HWRRAHLLPRLP; also: biotinylated)						increased under hypoxia
